Results taken from PubChem BioAssay AID256 (DTP/NCI, 2004).
Several values for one entry are separate records, joined by “and”; a condition that tells them apart may be missing. Equal values may be shown once. Toxic doses and inconclusive results are not listed.

System: CD2F1 mice, L1210 leukemia ip, survival T/C
Experiment: NCI In Vivo Anticancer Drug Screen. Data for tumor model L1210 Leukemia (intraperitoneal) in CD2F1 (CDF1) mice
Conditions: higher = longer survival
Outline: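 Ratio T/C, where T is the treated-group value and C the vehicle-dosed control value, from mice implanted with a transplantable tumor.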

[1] = endpoint: mean survival time, dose: 100.0 mg/kg/injection, schedule: Q04DX003 (ip), vehicle: saline with Tween-80
[2] = endpoint: mean survival time, dose: 200.0 mg/kg/injection, schedule: Q04DX003 (ip), vehicle: saline with Tween-80
[3] = endpoint: mean survival time, dose: 400.0 mg/kg/injection, schedule: Q04DX003 (ip), vehicle: saline with Tween-80
[4] = endpoint: mean survival time, dose: 100.0 mg/kg/injection, schedule: Q01DX001 (ip), vehicle: saline with Tween-80
[5] = endpoint: mean survival time, dose: 200.0 mg/kg/injection, schedule: Q01DX001 (ip), vehicle: saline with Tween-80
[6] = endpoint: mean survival time, dose: 75.0 mg/kg/injection, schedule: Q01DX001 (ip), vehicle: saline
[7] = endpoint: mean survival time, dose: 150.0 mg/kg/injection, schedule: Q01DX001 (ip), vehicle: saline
[8] = endpoint: mean survival time, dose: 100.0 mg/kg/injection, schedule: Q01DX009 (ip), vehicle: saline with Tween-80
[9] = endpoint: mean survival time, dose: 200.0 mg/kg/injection, schedule: Q01DX009 (ip), vehicle: saline with Tween-80
[10] = endpoint: mean survival time, dose: 400.0 mg/kg/injection, schedule: Q01DX009 (ip), vehicle: saline with Tween-80
[11] = endpoint: mean survival time, dose: 400.0 mg/kg/injection, schedule: Q01DX001 (ip), vehicle: saline with Tween-80

For CC(=O)C(=O)C(C)=O, the T/C [1] was 94 % of control, the T/C [2] was 91 % of control and the T/C [3] was 105 % of control.
For Cc1ccc(/C=C(/F)OC(C)(C)C)cc1, the T/C (endpoint: mean survival time, dose: 50.0 mg/kg/injection, schedule: Q01DX001 (ip), vehicle: saline with Tween-80) was 97 % of control, the T/C [4] was 101 % of control and the T/C [5] was 100 % of control.
CN(C)N=C1CCCCCC1 was tested, and the T/C [6] was 102 % of control and the T/C [7] was 98 % of control.
With O=C(COc1ccc(Cl)c(Cl)c1)NCc1cccc(Cl)c1 the T/C [1] was 95 % of control, the T/C [2] was 93 % of control and the T/C [3] was 95 % of control.
O=C(O)CCCCCCCCC1CC(F)(F)C(F)(F)S1 (stereo unspecified) was tested, and the T/C [8] was 98 % of control, the T/C [9] was 92 % of control and the T/C [10] was 95 % of control.
With CC(C)CCCCCCCCCCCCC(=O)NCC(=O)NC1C(C)OC(Nc2ncnc3nc[nH]c23)C(O)C1O (stereo unspecified) the T/C (endpoint: mean survival time, dose: 0.25 mg/kg/injection, schedule: Q01DX009 (ip), vehicle: distilled water + Tween-80) was 100 % of control and 102 % of control, the T/C (endpoint: mean survival time, dose: 0.5 mg/kg/injection, schedule: Q01DX009 (ip), vehicle: distilled water + Tween-80) was 96 % of control and 100 % of control and the T/C (endpoint: mean survival time, dose: 1.0 mg/kg/injection, schedule: Q01DX009 (ip), vehicle: distilled water + Tween-80) was 96 % of control and 104 % of control. For the same molecule, the T/C (endpoint: mean survival time, dose: 2.0 mg/kg/injection, schedule: Q01DX009 (ip), vehicle: distilled water + Tween-80) was 98 % of control and 107 % of control, the T/C (endpoint: mean survival time, dose: 4.0 mg/kg/injection, schedule: Q01DX009 (ip), vehicle: distilled water + Tween-80) was 96 % of control and 106 % of control and the T/C (endpoint: mean survival time, dose: 8.0 mg/kg/injection, schedule: Q01DX009 (ip), vehicle: distilled water + Tween-80) was 94 % of control and 102 % of control.
With CC1CC(C)(C)N=C(CC(=O)N2Cc3cc4ccccc4nc3C2)O1 (stereo unspecified) the T/C [4] was 96 % of control, the T/C [5] was 104 % of control and the T/C [11] was 96 % of control.
In the case of COc1ccc2c(C(=O)CCC(=O)O)cccc2c1, the T/C (endpoint: mean survival time, dose: 100.0 mg/kg/injection, schedule: Q01DX009 (ip), vehicle: saline) is reported as 94 % of control, the T/C (endpoint: mean survival time, dose: 200.0 mg/kg/injection, schedule: Q01DX009 (ip), vehicle: saline) is reported as 90 % of control and the T/C (endpoint: mean survival time, dose: 400.0 mg/kg/injection, schedule: Q01DX009 (ip), vehicle: saline) is reported as 100 % of control.
With C=CCN(CC=C)CC=C the T/C (endpoint: mean survival time, dose: 100.0 mg/kg/injection, schedule: Q04DX003 (ip), vehicle: saline) was 95 % of control, the T/C (endpoint: mean survival time, dose: 200.0 mg/kg/injection, schedule: Q04DX003 (ip), vehicle: saline) was 97 % of control and the T/C (endpoint: mean survival time, dose: 400.0 mg/kg/injection, schedule: Q04DX003 (ip), vehicle: saline) was 93 % of control.
With CCC1OCC(C(Cl)CCl)O1 (stereo unspecified) the T/C (endpoint: mean survival time, dose: 12.5 mg/kg/injection, schedule: Q01DX009 (ip), vehicle: Klucel (hydroxypropylcellulose) (HPC)) was 94 % of control and 101 % of control, the T/C (endpoint: mean survival time, dose: 25.0 mg/kg/injection, schedule: Q01DX009 (ip), vehicle: Klucel (hydroxypropylcellulose) (HPC)) was 99 % of control and 102 % of control and the T/C (endpoint: mean survival time, dose: 50.0 mg/kg/injection, schedule: Q01DX009 (ip), vehicle: Klucel (hydroxypropylcellulose) (HPC)) was 95 % of control and 96 % of control. The T/C (endpoint: mean survival time, dose: 100.0 mg/kg/injection, schedule: Q01DX009 (ip), vehicle: Klucel (hydroxypropylcellulose) (HPC)) was 94 % of control and 107 % of control, the T/C (endpoint: mean survival time, dose: 200.0 mg/kg/injection, schedule: Q01DX009 (ip), vehicle: Klucel (hydroxypropylcellulose) (HPC)) was 90 % of control and 91 % of control and the T/C (endpoint: mean survival time, dose: 400.0 mg/kg/injection, schedule: Q01DX009 (ip), vehicle: Klucel (hydroxypropylcellulose) (HPC)) was 87 % of control.
For O=c1[nH]cc(COCc2ccccc2)c(=O)[nH]1, the T/C [1] was 98 % of control, the T/C [2] was 104 % of control and the T/C [3] was 96 % of control.
CN(C)CCCOc1nc2c(c(=O)n(C)c(=O)n2C)n1C (tested in a mixture with another compound) was tested, and the T/C (endpoint: median survival time, dose: 6.25 mg/kg/injection, schedule: Q01DX009 (ip), vehicle: Klucel (hydroxypropylcellulose) (HPC)) was 111 % of control, the T/C (endpoint: median survival time, dose: 12.5 mg/kg/injection, schedule: Q01DX009 (ip), vehicle: Klucel (hydroxypropylcellulose) (HPC)) was 116 % of control and 117 % of control and the T/C (endpoint: median survival time, dose: 50.0 mg/kg/injection, schedule: Q01DX009 (ip), vehicle: Klucel (hydroxypropylcellulose) (HPC)) was 154 % of control and 176 % of control. For the same molecule, the T/C (endpoint: median survival time, dose: 100.0 mg/kg/injection, schedule: Q01DX009 (ip), vehicle: Klucel (hydroxypropylcellulose) (HPC)) was 155 % of control and 185 % of control and the T/C (endpoint: median survival time, dose: 200.0 mg/kg/injection, schedule: Q01DX009 (ip), vehicle: Klucel (hydroxypropylcellulose) (HPC)) was 172 % of control.
In the case of Nc1cccc(CCc2ccc(-c3nc4ncnc(N)c4[nH]3)cc2)c1, the T/C [4] is reported as 86 % of control, the T/C [5] is reported as 88 % of control and the T/C [11] is reported as 93 % of control.
In the case of O=[N+]([O-])c1ccc(N/N=C/c2ccnc3ccccc23)cc1, the T/C (endpoint: mean survival time, dose: 100.0 mg/kg/injection, schedule: Q04DX003 (ip), vehicle: Klucel (hydroxypropylcellulose) (HPC)) is reported as 89 % of control, the T/C (endpoint: mean survival time, dose: 200.0 mg/kg/injection, schedule: Q04DX003 (ip), vehicle: Klucel (hydroxypropylcellulose) (HPC)) is reported as 91 % of control and the T/C (endpoint: mean survival time, dose: 400.0 mg/kg/injection, schedule: Q04DX003 (ip), vehicle: Klucel (hydroxypropylcellulose) (HPC)) is reported as 97 % of control.
For Nc1nc(N)nc(N)n1, the T/C [8] was 95 % of control, the T/C [1] was 97 % of control and the T/C [9] was 94 % of control. For the same molecule, the T/C [2] was 105 % of control, the T/C [10] was 95 % of control and the T/C [3] was 97 % of control. The T/C (endpoint: mean survival time, dose: 800.0 mg/kg/injection, schedule: Q01DX009 (ip), vehicle: saline with Tween-80) was 90 % of control.
c1cncc(-c2nnc(-c3cccnc3)o2)c1 was tested, and the T/C (endpoint: mean survival time, dose: 1.56 mg/kg/injection, schedule: Q04DX002 (ip), vehicle: saline with Tween-80) was 101 % of control, the T/C (endpoint: mean survival time, dose: 3.13 mg/kg/injection, schedule: Q04DX002 (ip), vehicle: saline with Tween-80) was 104 % of control and the T/C (endpoint: mean survival time, dose: 6.25 mg/kg/injection, schedule: Q04DX002 (ip), vehicle: saline with Tween-80) was 104 % of control. For the same molecule, the T/C (endpoint: mean survival time, dose: 12.5 mg/kg/injection, schedule: Q04DX002 (ip), vehicle: saline with Tween-80) was 104 % of control, the T/C (endpoint: mean survival time, dose: 100.0 mg/kg/injection, schedule: Q04DX002 (ip), vehicle: saline with Tween-80) was 87 % of control and the T/C (endpoint: mean survival time, dose: 200.0 mg/kg/injection, schedule: Q04DX002 (ip), vehicle: saline with Tween-80) was 87 % of control.
In the case of CC(=O)OC(c1ccccc1)C(C)C(O)(C(F)(F)F)C(F)(F)F (stereo unspecified), the T/C [4] is reported as 98 % of control, the T/C [5] is reported as 87 % of control and the T/C [11] is reported as 95 % of control.
Nc1ccc(/C=C/c2ccnc3ccccc23)cc1 was tested, and the T/C (endpoint: mean survival time, dose: 4.0 mg/kg/injection, schedule: Q01DX Z (ip), vehicle: saline) was 104 % of control, the T/C (endpoint: mean survival time, dose: 8.0 mg/kg/injection, schedule: Q01DX Z (ip), vehicle: saline) was 101 % of control and the T/C (endpoint: mean survival time, dose: 16.0 mg/kg/injection, schedule: Q01DX Z (ip), vehicle: saline) was 98 % of control.
With CC1(C)N=C(N)N=C(N)N1c1ccc(CCCCc2ccc(Cl)cc2Cl)cc1 the T/C (endpoint: mean survival time, dose: 6.25 mg/kg/injection, schedule: Q01DX009 (ip), vehicle: saline with Tween-80) was 98 % of control, the T/C (endpoint: mean survival time, dose: 6.25 mg/kg/injection, schedule: Q04DX003 (ip), vehicle: saline sonified) was 96 % of control and the T/C (endpoint: mean survival time, dose: 12.5 mg/kg/injection, schedule: Q01DX009 (ip), vehicle: saline with Tween-80) was 102 % of control. The T/C (endpoint: mean survival time, dose: 12.5 mg/kg/injection, schedule: Q04DX003 (ip), vehicle: saline sonified) was 98 % of control and the T/C (endpoint: mean survival time, dose: 25.0 mg/kg/injection, schedule: Q04DX003 (ip), vehicle: saline sonified) was 100 % of control.
COC(=O)/C=C/N(Cc1ccccc1)Cc1ccccc1 was tested, and the T/C [1] was 98 % of control, the T/C [2] was 96 % of control and the T/C [3] was 94 % of control.
For OCCN1CCSC1=S, the T/C [1] was 101 % of control, the T/C [2] was 97 % of control and the T/C [3] was 92 % of control.
In the case of CNc1ccc(O)cc1, the T/C (endpoint: mean survival time, dose: 5.0 mg/kg/injection, schedule: Q01DX009 (ip), vehicle: saline sonified) is reported as 101 % of control, the T/C (endpoint: mean survival time, dose: 5.0 mg/kg/injection, schedule: Q04DX003 (ip), vehicle: saline) is reported as 91 % of control and the T/C (endpoint: mean survival time, dose: 10.0 mg/kg/injection, schedule: Q01DX009 (ip), vehicle: saline sonified) is reported as 103 % of control. The T/C (endpoint: mean survival time, dose: 10.0 mg/kg/injection, schedule: Q04DX003 (ip), vehicle: saline) was 97 % of control, the T/C (endpoint: mean survival time, dose: 20.0 mg/kg/injection, schedule: Q01DX009 (ip), vehicle: saline sonified) was 104 % of control and the T/C (endpoint: mean survival time, dose: 20.0 mg/kg/injection, schedule: Q04DX003 (ip), vehicle: saline) was 101 % of control.
For O=C(c1ccccc1)C1C(C(=O)c2ccccc2)C1c1ccccc1 (stereo unspecified), the T/C [4] was 87 % of control, the T/C [5] was 90 % of control and the T/C [11] was 93 % of control.
With NNc1nc(=O)[nH]nc1Sc1ccccc1 the T/C [6] was 96 % of control, the T/C [7] was 101 % of control and the T/C (endpoint: mean survival time, dose: 300.0 mg/kg/injection, schedule: Q01DX001 (ip), vehicle: saline) was 97 % of control.
